# Measured values published in patent US8785459B2, “Quinazoline compounds as kinase inhibitors” (Development Center for Biotechnology, priority 2011, dated 2014).
# Key:
# Type in all cases: biochemical
# C-Raf = C-Raf (Homo sapiens (Human), UniProt P04049); experiment: Raf kinase assay (C-Raf), [33P] incorporation into MEK1(K97R)
# Method in brief: (§1)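 Recombinant C-Raf (2 ng) or B-Raf or B-Raf V600E (5 ng each) phosphorylated 500 ng MEK1(K97R) with 8 μM ATP plus [33P]ATP, pH 7.5, 30 min at 30 °C. Filter-captured 33P counted. IC50 from 3-fold compound dilutions run in duplicate.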
# B-Raf = B-Raf (Homo sapiens (Human), UniProt P15056); experiment: Raf kinase assay (B-Raf), [33P] incorporation into MEK1(K97R); conditions: for inhibition at 1 µM: 1.0 μM compound, read-out: B-Raf inhibition at 1.0 μM
# Method in brief: as §1
# B-Raf (V600E) = B-Raf (V600E) (Homo sapiens (Human), UniProt P15056, V600E); experiment: Raf kinase assay (B-Raf (V600E)), [33P] incorporation into MEK1(K97R)
# Method in brief: as §1
# Sequence of B-Raf (V600E) (P15056 whole entry V600E): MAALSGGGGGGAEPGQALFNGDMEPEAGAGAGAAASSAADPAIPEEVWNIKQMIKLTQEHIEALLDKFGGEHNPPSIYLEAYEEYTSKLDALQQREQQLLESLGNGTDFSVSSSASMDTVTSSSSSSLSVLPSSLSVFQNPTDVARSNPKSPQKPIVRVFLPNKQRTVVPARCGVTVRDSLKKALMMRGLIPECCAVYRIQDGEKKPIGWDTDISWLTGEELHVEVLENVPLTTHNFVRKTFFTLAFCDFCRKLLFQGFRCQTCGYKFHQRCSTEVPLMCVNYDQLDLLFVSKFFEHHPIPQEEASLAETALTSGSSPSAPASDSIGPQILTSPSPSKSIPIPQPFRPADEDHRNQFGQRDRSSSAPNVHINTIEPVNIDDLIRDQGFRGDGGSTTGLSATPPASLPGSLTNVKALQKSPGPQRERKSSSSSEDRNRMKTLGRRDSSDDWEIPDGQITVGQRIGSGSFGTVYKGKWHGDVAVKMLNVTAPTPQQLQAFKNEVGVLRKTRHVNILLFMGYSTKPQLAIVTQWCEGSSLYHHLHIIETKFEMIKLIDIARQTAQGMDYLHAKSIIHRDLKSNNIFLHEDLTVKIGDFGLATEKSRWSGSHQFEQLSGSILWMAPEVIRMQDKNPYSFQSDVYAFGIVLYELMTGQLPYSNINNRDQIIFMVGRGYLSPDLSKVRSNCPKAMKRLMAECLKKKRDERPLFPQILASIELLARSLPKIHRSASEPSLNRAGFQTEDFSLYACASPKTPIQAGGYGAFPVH
# Sequence of C-Raf (P04049 whole entry): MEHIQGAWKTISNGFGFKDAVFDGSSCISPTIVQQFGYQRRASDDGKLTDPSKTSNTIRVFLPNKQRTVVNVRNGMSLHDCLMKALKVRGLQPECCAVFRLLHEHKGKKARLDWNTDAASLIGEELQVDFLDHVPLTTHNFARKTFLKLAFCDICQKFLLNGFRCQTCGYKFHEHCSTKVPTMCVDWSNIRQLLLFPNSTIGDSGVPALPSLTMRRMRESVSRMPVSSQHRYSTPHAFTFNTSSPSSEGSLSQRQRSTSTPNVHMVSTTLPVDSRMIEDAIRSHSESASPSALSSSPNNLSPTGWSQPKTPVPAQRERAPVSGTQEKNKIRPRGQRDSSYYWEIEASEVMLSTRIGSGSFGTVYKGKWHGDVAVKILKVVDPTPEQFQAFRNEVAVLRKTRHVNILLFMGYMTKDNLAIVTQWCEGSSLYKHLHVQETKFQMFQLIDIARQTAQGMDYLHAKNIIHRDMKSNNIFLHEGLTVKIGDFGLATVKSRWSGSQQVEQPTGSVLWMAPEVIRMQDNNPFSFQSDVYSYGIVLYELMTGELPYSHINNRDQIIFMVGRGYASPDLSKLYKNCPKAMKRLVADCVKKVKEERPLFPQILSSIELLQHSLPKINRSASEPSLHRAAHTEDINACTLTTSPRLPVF
# Sequence of B-Raf (P15056 whole entry): as the sequence (P15056 whole entry V600E) above, with E600V counted along it
SMILES,IC50 (C-Raf) [nM],IC50 (B-Raf) [nM],inhibition at 1 µM (B-Raf) [%],IC50 (B-Raf (V600E)) [nM]
"COc1cc(-c2ccc3ncnc(Nc4cccc(S(N)(=O)=O)c4)c3c2)ccc1O [Compound 27, 3-(6-(4-hydroxy-3-methoxyphenyl)quinazolin-4-ylamino)benzenesulfonamide]",887,415,77.2,453
"COc1cc(-c2ccc3ncnc(Nc4ccc5cn[nH]c5c4)c3c2)ccc1O [Compound 39, 4-(4-(1H-indazol-6-ylamino)quinazolin-6-yl)-2-methoxyphenol]",3280,1030,51.6,1440
"COc1cc(-c2ccc3ncnc(Nc4cccc(NS(C)(=O)=O)c4)c3c2)ccc1O [Compound 56, N-(3-(6-(4-hydroxy-3-methoxyphenyl)quinazolin-4-ylamino)phenyl)methanesulfonamide]",1410,463,64.1,430
"COc1cc(-c2ccc3ncnc(Nc4ccc(C)cc4F)c3c2)ccc1O [Compound 17, 4-(4-(2-fluoro-4-methylphenylamino)quinazolin-6-yl)-2-methoxyphenol]",1910,647,59.4,619
"CC(=O)Nc1ccc(-c2ccc3ncnc(Nc4cccc5[nH]ncc45)c3c2)cc1 [Compound 71, N-(4-(4-(1H-indazol-4-ylamino)quinazolin-6-yl)phenyl)acetamide]",935,373,77.2,393
"Oc1cccc(-c2ccc3ncnc(Nc4cccc5[nH]ncc45)c3c2)c1 [Compound 143, 3-(4-(1H-indazol-4-ylamino)quinazolin-6-yl)phenol]",1960,227,75.4,357
"COc1cc(-c2ccc3ncnc(Nc4ccccc4F)c3c2)ccc1O [Compound 119, 4-(4-(2-fluorophenylamino)quinazolin-6-yl)-2-methoxyphenol]",1440,543,67.1,633
"COc1cc(-c2ccc3ncnc(Nc4ccccc4C(N)=O)c3c2)ccc1O [Compound 33, 2-(6-(4-hydroxy-3-methoxyphenyl)quinazolin-4-ylamino)benzamide]",> 3000,667,53.6,2340
"FC(F)(F)c1cccc(-c2ccc3ncnc(Nc4cccc5[nH]ncc45)c3c2)c1 [Compound 87, N-(1H-indazol-4-yl)-6-(3-(trifluoromethyl)phenyl)quinazolin-4-amine]",844,356,71.3,371
"COc1cccc(Nc2ncnc3ccc(-c4ccc(O)c(OC)c4)cc23)c1 [Compound 22, 2-methoxy-4-(4-(3-methoxyphenylamino)quinazolin-6-yl)phenol]",1390,719,63.3,411
"COc1cc(-c2ccc3ncnc(Nc4ccc(Cl)cc4F)c3c2)ccc1O [Compound 16, 4-(4-(4-chloro-2-fluorophenylamino)quinazolin-6-yl)-2-methoxyphenol]",1250,817,51.5,810
"COc1cc(-c2ccc3ncnc(Nc4ccccc4O)c3c2)ccc1O [Compound 23, 4-(4-(2-hydroxyphenylamino)quinazolin-6-yl)-2-methoxyphenol]",3090,669,62.6,377
"NS(=O)(=O)c1ccc(-c2ccc3ncnc(Nc4cccc5[nH]ncc45)c3c2)cc1 [Compound 107, 4-(4-(1H-indazol-4-ylamino)quinazolin-6-yl)benzenesulfonamide]",677,345,75.4,328
"COc1cc(-c2ccc3ncnc(Nc4cccc5c4cnn5C)c3c2)ccc1O [Compound 99, 2-methoxy-4-(4-(1-methyl-1H-indazol-4-ylamino)quinazolin-6-yl)phenol]",3910,358,61.1,451
"COc1ccc(-c2ccc3ncnc(Nc4cccc5[nH]ncc45)c3c2)cc1 [Compound 147, N-(1H-indazol-4-yl)-6-(4-methoxyphenyl)quinazolin-4-amine]",2950,680,50.7,848
"CN(C)c1ccc(-c2ccc3ncnc(Nc4cccc(O)c4)c3c2)cc1 [Compound 106, 3-(6-(4-(dimethylamino)phenyl)quinazolin-4-ylamino)phenol]",3190,272,78.7,292
"CS(=O)(=O)Nc1ccc(-c2ccc3ncnc(Nc4cccc5[nH]ncc45)c3c2)cc1 [Compound 73, N-(4-(4-(1H-indazol-4-ylamino)quinazolin-6-yl)phenyl)methanesulfonamide]",1430,366,72.5,487

SMILES,IC50 (C-Raf) [nM],IC50 (B-Raf) [nM],inhibition at 1 µM (B-Raf) [%],IC50 (B-Raf (V600E)) [nM]
"COc1cccc(-c2ccc3ncnc(Nc4cccc5[nH]ncc45)c3c2)c1 [Compound 144, N-(1H-indazol-4-yl)-6-(3-methoxyphenyl)quinazolin-4-amine]",3900,309,62.6,472
"Cc1ccc(F)cc1-c1ccc2ncnc(Nc3cccc4[nH]ncc34)c2c1 [Compound 104, 6-(5-fluoro-2-methylphenyl)-N-(1H-indazol-4-yl)quinazolin-4-amine]",778,235,81.1,357
"Oc1cccc(-c2ccc3nccc(Nc4cccc5[nH]ncc45)c3c2)c1 [Compound 148, 3-(4-(1H-indazol-4-ylamino)quinolin-6-yl)phenol]",584,230,68.9,359
"COc1cccc(-c2ccc3ncnc(Nc4cccc5[nH]ncc45)c3c2)c1OC [Compound 105, 6-(2,3-dimethoxyphenyl)-N-(1H-indazol-4-yl)quinazolin-4-amine]",2130,380,72.6,515
"O=[N+]([O-])c1cccc(-c2ccc3ncnc(Nc4cccc5[nH]ncc45)c3c2)c1 [Compound 92, N-(1H-indazol-4-yl)-6-(3-nitrophenyl)quinazolin-4-amine]",1610,428,66.3,535
"COc1cc(-c2ccc3ncnc(Nc4cccc5[nH]c(=O)[nH]c45)c3c2)ccc1O [Compound 127, 4-(6-(4-hydroxy-3-methoxyphenyl)quinazolin-4-ylamino)-1H-benzo[d]imidazol-2(3H)-one]",8390,888,53.5,1090
"COc1ccc(-c2ccc3ncnc(Nc4cccc5[nH]ncc45)c3c2)cc1Cl [Compound 76, 6-(3-chloro-4-methoxyphenyl)-N-(1H-indazol-4-yl)quinazolin-4-amine]",876,216,86.1,240
"CS(=O)(=O)Nc1cccc(-c2ccc3ncnc(Nc4cccc5[nH]ncc45)c3c2)c1 [Compound 95, N-(3-(4-(1H-indazol-4-ylamino)quinazolin-6-yl)phenyl)methanesulfonamide]",1290,430,70.9,534
"COc1cc(-c2ccc3ncnc(Nc4c(F)cccc4F)c3c2)ccc1O [Compound 134, 4-(4-(2,6-difluorophenylamino)quinazolin-6-yl)-2-methoxyphenol]",4420,760,57.7,706
"COc1cc(-c2ccc3ncnc(Nc4cccc(OC(F)F)c4)c3c2)ccc1O [Compound 118, 4-(4-(3-(difluoromethoxy)phenylamino)quinazolin-6-yl)-2-methoxyphenol]",988,548,68.2,525
"COc1cc(-c2cc3c(Nc4ccc(C)c(O)c4)ncnc3cc2OC)ccc1O [Compound 41, 4-(4-(3-hydroxy-4-methylphenylamino)-7-methoxyquinazolin-6-yl)-2-methoxyphenol]",> 10000,266,82.2,349
"COc1ccc(-c2ccc3ncnc(Nc4cccc5[nH]ncc45)c3c2)cc1OC [Compound 89, 6-(3,4-dimethoxyphenyl)-N-(1H-indazol-4-yl)quinazolin-4-amine]",869,205,80.4,259
"COc1cc(-c2ccc3ncnc(Nc4cccc(C(F)(F)F)c4)c3c2)ccc1O [Compound 18, 2-methoxy-4-(4-(3-(trifluoromethyl)phenylamino)quinazolin-6-yl)phenol]",> 10000,3140,48.9,1170
"COc1cc(-c2ccc3ncnc(Nc4cc(NS(C)(=O)=O)ccc4F)c3c2)ccc1O [Compound 129, N-(4-fluoro-3-(6-(4-hydroxy-3-methoxyphenyl)quinazolin-4-ylamino)phenyl)methanesulfonamide]",1060,240,77.5,270
"CCS(=O)(=O)Nc1cccc(-c2ccc3ncnc(Nc4cccc5[nH]ncc45)c3c2)c1 [Compound 108, N-(3-(4-(1H-indazol-4-ylamino)quinazolin-6-yl)phenyl)ethanesulfonamide]",680,221,81.1,244
"Oc1ccc(-c2ccc3ncnc(Nc4ccccc4)c3c2)cc1 [Compound 4, 4-(4-(phenylamino)quinazolin-6-yl)phenol]",9460,3990,,4870
